Source: US20220226319A1, “TALTIRELIN USE” (EOLAS RESEARCH LIMITED, priority 2019, published 2022)
Entries after “also recorded” stand apart in the source; their conditions may differ.

Key:
Type in all cases: cell-based
[1] = system: FOXO1 gene expression in fibroblasts; assay: FOXO1 gene expression in fibroblasts; details: older cells (passage 20), P<0.01, FIG. 1
Description: (§1) Experiments have shown that taltirelin modulates the gene expression in fibroblasts of a variety of genes involved in processes underlying ageing.
(§2) FIG. 1 illustrates the increased expression of FOXO1 and FOXO3 genes that occurs in fibroblasts by administration of taltirelin. From the results, it can be seen that the administration of taltirelin in older cells (passage 20) led to a large increase in the expression of FOXO1 (>5×) and FOXO3 (>1.5×) compared to untreated controls. The results were statistically significant with P<0.01.

[2] = system: FOXO3 gene expression in fibroblasts; assay: FOXO3 gene expression in fibroblasts; details: older cells (passage 20), P<0.01, FIG. 1
Description: as §1, §2

[3] = system: SIRT1 gene expression in fibroblasts; assay: SIRT1 gene expression in fibroblasts; details: older cells (passage 20), FIG. 2
Description: (§3) FIG. 2 illustrates the increased expression of EFNB1, NFE2L2, SERPINE1 and SIRT1 genes in fibroblasts that occurs by administration of taltirelin.

[4] = system: EFNB1 gene expression in fibroblasts; assay: EFNB1 gene expression in fibroblasts; details: older cells (passage 20), FIG. 2
Description: as §3

[5] = system: SERPINE1 gene expression in fibroblasts; assay: SERPINE1 gene expression in fibroblasts; details: older cells (passage 20), FIG. 2
Description: as §3

[6] = system: NFE2L2 gene expression in fibroblasts; assay: NFE2L2 gene expression in fibroblasts; details: older cells (passage 20), FIG. 2
Description: as §3

`CN1C(=O)C[C@@H](C(=O)N[C@@H](Cc2cnc[nH]2)C(=O)N2CCC[C@H]2C(N)=O)NC1=O` [taltirelin, N-[[(4S)-Hexahydro-1-methyl-2,6-dioxo-4-pyrimidinyl]carbonyl]-L-histidyl-L-prolinamide] was tested, and the “increase in the expression of FOXO1 compared to untreated controls” value [1] was over 5 ×, the “increase in the expression of FOXO3 compared to untreated controls” value [2] was over 1.5 × and the “expression of SIRT1 gene compared to untreated controls” value [3] was “statistically significant (P<0.01) increase; also recorded: increased significantly”. The “expression of EFNB1 gene compared to untreated controls” value [4] was “statistically significant (P<0.01) increase; also recorded: significantly increased”, the “expression of SERPINE1 gene compared to untreated controls” value [5] was “statistically significant (P<0.01) decrease; also recorded: significantly inhibited” and the “expression of NFE2L2 gene compared to untreated controls” value [6] was “statistically significant (P<0.01) increase; also recorded: significantly increased”.
